The text below walks through data of publication PMC4207450, “Aurones: A Promising Heterocyclic Scaffold for the Development of Potent Antileishmanial Agents” (International Journal of Medicinal Chemistry, 2012).

The test system of series [1] is L. infantum intracellular amastigotes. The series can be described thus: Growth inhibition of luciferase-expressing L. infantum intracellular amastigotes in THP1-differentiated macrophages. The class given is cell-based, Leishmania infantum. Conditions: for IC50: Leishmania infantum, Macrophage, 72 h incubation, luciferase activity, infected THP1-differentiated macrophages. The protocol:
A cloned line of L. infantum (MOM/MA671 TMAP263) promastigotes, stably expressing the luciferase gene (LUC), was grown in RPMI 1640 medium (Bio Whitaker, Belgium) supplemented with 10% heat-inactivated fetal bovine serum (FBS) (Bio Whitaker, Belgium), 2 mML-glutamine (Bio Whitaker, Belgium), 20 mM Hepes (Bio Whitaker, Belgium), 100 U/mL penicillin, and 100 μg/mL streptomycin (Bio Whitaker, Belgium). Selection of LUC positive parasites was done by adding geneticin-sulphate (Sigma-Aldrich, USA) to the culture media at a final concentration of 5 μg/mL. Parasites were maintained in culture, at 26°C by subpassage ([…]) at every 5 days.
L. infantum axenic amastigotes, stably expressing the LUC gene were derived from promastigotes by culturing them in MAA (Medium for Axenic Amastigotes) culture medium. MAA consisted of a modified medium 199 with Hanks balanced salt solution (Gibco-Invitrogen, Spain) supplemented with 0.5% soya broth trypto-casein (Bio-Rad, UK), 15 mM D-glucose (Panreac, Spain), 4 mM NaHCO3 (Sigma-Aldrich, USA). The pH was adjusted to 5.8, and the media was 0.2 μm sterilized by filtration and further supplemented with 0.023 mM bovine hemin (Fluka, USA), 5 mM L-glutamine, and 25% of heat inactivated FBS. Amastigotes were maintained in culture, at 37°C in an atmosphere containing 5% CO2 by subpassage (10^5 parasites/mL), at every 5 days.
THP1-differentiated macrophages were infected for a period of 4 h with stationary phase LUC expressing, L. infantum axenic amastigotes, at a 5 : 1 parasite to cell ratio. After the infection period, cells were washed with culture media to remove noninternalized parasites. Serial dilutions of the aurones, ranging from 50 to 0.78 μM in culture media, were added to the wells, in quadruplicate, and incubated for 72 h at 37°C, 5% CO2. After the incubation period, the luciferase activity of intracellular amastigotes was determined as described before. The percentage of growth inhibition was calculated as described above.

The subject of series [2] is THP1-differentiated macrophages. The series can be described thus: Toxicity of aurones on THP1-differentiated macrophages (MTT assay). The class given is cell-based, human. To be noted: for IC50: Homo sapiens, Macrophage, 72 h incubation, MTT assay, cytotoxicity; for toxicity to mammalian (THP1) cells, in words: THP1-differentiated macrophages. The protocol: The human leukaemia monocyte THP1 cell line was cultured as a monolayer at 37°C in a humidified atmosphere containing 5% CO2. Cells were grown in RPMI 1640 medium, supplemented with 10% heat-inactivated FBS, 2 mM L-glutamine, 100 U/mL penicillin, and 100 μg/mL streptomycin, and were maintained in culture, by subpassage every 3 days.
For macrophage differentiation, human leukaemia monocyte cell line (THP-1 cells) cells were incubated in the presence of 20 ng/ml phorbol 12-myristate 13-acetate (PMA, Sigma-Aldrich) for 18 h at 37°C, 5% CO2, and left another 24 h with fresh medium containing no PMA to induce maturation. Serial dilutions of each aurone, ranging from 100 to 1.56 μM in culture media, were added to the wells, in quadruplicate, and incubated for 72 h at 37°C, 5% CO2. Cell viability was assessed by the MTT assay, as described before.
The IC50 value, that is, the concentration of the aurone necessary to decrease cell viability to 50% of the untreated control, was determined by linear regression analysis.

The mark [3] stands for this setting: ratio of IC50 on THP1-differentiated macrophages to IC50 on intracellular parasite.

The structures appear in SMILES notation. Where two headings read alike, the source gives them in different places. Where only a bound is given, the exact number is not on record here.

Turning to `C[C@@H]1[C@H](O)[C@@H](C)/C=C/C=C/C=C/C=C/C=C/C=C/C=C/[C@H](O[C@@H]2O[C@H](C)[C@@H](O)[C@H](N)[C@@H]2O)C[C@@H]2O[C@](O)(C[C@@H](O)C[C@@H](O)[C@H](O)CC[C@@H](O)C[C@@H](O)CC(=O)O[C@H]1C)C[C@H](O)[C@H]2C(=O)O` [Amphotericin B, reference compound], in series [1], the “Selectivity index (SI)” value was 20.6 and the midpoint of inhibition, the IC50, lay at 1200 ± 100 nM. Besides, in series [2], the IC50 was 23.8 ± 2.3 µM.
As to `Cc1ccc(/C=C2\Oc3ccccc3C2=O)cc1` [Compound 4b], the midpoint of inhibition in series [2], the IC50, lay at 8.5 ± 0.8 µM.
Still for that read-out and setting: the result for `COc1ccccc1/C=C1\Oc2ccccc2C1=O` [Compound 4d] reads 17.5 ± 3.1 µM; that for `O=C1/C(=C/c2ccc(Cl)cc2)Oc2ccccc21` [Compound 4c], 14.5 ± 2.1 µM.
For `COc1cc(OC)c2c(c1)O/C(=C\c1ccccc1C)C2=O` [Compound 4j, 4,6-Dimethoxy-2′-methylaurone], the melting point fell in the range of 180 to 183 °C. This compound returned a concentration for half-maximal inhibition (IC50) in series [1] of 1600 ± 200 nM. In addition, the “Selectivity index (SI)” value in series [1] (setting [3]) was 43.4. In series [2], this compound returned an IC50 of 68.1 ± 2.1 µM.
As for `COc1cc(OC)c2c(c1)O/C(=C\c1ccccc1OC)C2=O` [Compound 4i, 2′,4,6-trimethoxyaurone], the IC50 in series [1] was 1300 ± 100 nM; in series [2], 75.4 ± 4.7 µM. The “Selectivity index (SI)” value in series [1] (setting [3]) was found to be 57.5.
Regarding `COc1cc(OC)c2c(c1)O/C(=C\c1ccccc1Cl)C2=O` [Compound 4k, 4,6-Dimethoxy-2′-chloro-aurone], the melting point was 191 to 193 °C. In addition, the IC50 in series [1] was 12200 ± 1400 nM. Besides, the “Selectivity index (SI)” value in series [1] (setting [3]) is greater than 8.2. In series [2], the IC50 is greater than 100 µM and the “toxicity to mammalian (THP1) cells, in words” value was “not toxic to mammalian cells”.
In turn, `COc1cc(OC)c2c(c1)O/C(=C\c1ccccc1)C2=O` [Compound 4l, 4,6-Dimethoxyaurone] displayed a melting point of 139 to 142 °C. Half-maximal inhibition in series [1] (IC50) was put at 2100 ± 900 nM. In addition, the “Selectivity index (SI)” value in series [1] (setting [3]) turned out to be 26.9. Moreover, in series [2], the IC50 is 57.5 ± 3.4 µM.
With `COc1ccc(/C=C2\Oc3cc(OC)cc(OC)c3C2=O)cc1` [Compound 4h], inhibition in series [2] was half-maximal at 19.6 ± 2.5 µM (IC50).
Turning to `COc1cccc(/C=C2\Oc3ccccc3C2=O)c1` [Compound 4e], the half-inhibitory concentration (IC50) in series [1] worked out at 4700 ± 500 nM. The “Selectivity index (SI)” value in series [1] (setting [3]) is 11.5. For the same compound, in series [2], the IC50 turned out to be 54.2 ± 7.3 µM and the “toxicity to mammalian (THP1) cells, in words” value is given as “did not show significant toxicity”.
For `COc1ccc(/C=C2\Oc3ccccc3C2=O)cc1` [Compound 4a], the IC50 in series [2] came to 16.5 ± 3.1 µM.
The same measure, in the same setting: the result for `COc1ccc(/C=C2\Oc3ccccc3C2=O)cc1OC` [Compound 4f] reads 20.5 ± 1.2 µM.
